Reference: patent US20250064907A1, “THERAPEUTIC VACCINES FOR TREATMENT OF CHRONIC INFLAMMATORY DISEASES” (ATHEROVAX, LLC, priority 2023, published 2025)
Entries after “also recorded” stand apart in the source; their conditions may differ. Where no end group is shown, it is not given here.

Legend:
thrombus = experiment: Inferior vena cava ligation thrombus, wet weight; type: in vivo, Lewis rats; conditions: for Thrombus (wet weight): 4 hours after ligation, saline 0.015 ± 0.001
Experimental: (§1) Adult Lewis rats weighing 200-250 g were randomly distributed into three treatment groups with 4 male and 4 female rats in each group. Group 1 received 1.0 mL saline subcutaneously on days 0 and 14. Group 2 received 1.0 mL saline with 0.025 mg AtheroVax peptide (SEQ ID NO: 18) and 0.025 mg aluminum hydroxide adjuvant on days 0 and 14. Group 3 received 1.0 mL saline with 0.075 mg AtheroVax peptide (SEQ ID NO: 18) and 0.075 mg aluminum hydroxide adjuvant on days 0 and 14. […] The abdominal cavity was sutured immediately after the ligation. The rats were euthanized 4 hours after dressing.
(§2) The thrombus was removed from the rats and wet weight determined. In addition, blood was recovered from the rats and coagulation parameters prothrombin time (PT), thrombin time (TT), and fibrinogen were measured.
(§3) Statistical analysis of mean and standard deviation for male, female, and combined values were calculated for each of the coagulation parameters. Pairwise comparisons using the students T-test were performed using Excel. Significance was determined if the p-value is less than 0.05.

[1] = tested on: regulatory T cells (Tregs); experiment: FoxP3 immunohistochemistry of colon, rat ulcerative colitis model; type: in vivo; conditions: 75 μg peptide and alum adjuvant one week prior to colitis; colon collected 8 days after initiation; vs unvaccinated
Experimental: These studies were performed in accordance with the recommendations of the Animal Care and Use Committee of Tbilisi State Medical University. Colitis was initiated following introduction of 4% acetic acid at 24-hour intervals for three days into colon under light anesthesia (50 mg/kg ketamine HCl and 5 mg/kg xylaxine). Injections were intrarectal through 2 mm diameter, 6-8 cm long polyethylene catheter to deliver 1 mL solution.
Colon samples were fixed in 10% neutral buffered formalin for 24 hours at room temperature and embedded in paraffin. Tissue sections 5 μm thick were stained with hematoxylin and eosin (H&E), Masson's trichrome, and Periodic Acid-Schiff stain (PAS) according to the manufacturer's protocols. The immunohistochemistry utilized a FoxP3 rabbit monoclonal antibody, ab215206, obtained from Abcam (Boston, MA) followed by a goat anti-rabbit secondary antibody conjugated with peroxidase.

[2] = Blood coagulation parameters after inferior vena cava ligation; type: in vivo, Lewis rats; conditions: across doses, result in words
Experimental: as §1, §2, §3

IL-6 = IL-6 ELISA in rat colitis model; type: in vivo; conditions: for tissue resident IL-6: colon tissue
Experimental: (§4) Rats were vaccinated with a human sTNFR2 peptide, DFALPVEKPLCLOR (SEQ ID NO: 18), targeting the human sTNFR2 peptide. The rats were injected with 25 μg of the peptide subcutaneously with 25 μg Alum as adjuvant in PBS 10 days before initiating colitis. The studies were performed in accordance with the recommendations of the Animal Care and Use Committee of Tbilisi State Medical University. Briefly, the colitis was induced by introduction of 4% acetic acid at 24-hour intervals for three days into the colon under light anesthesia (50 mg/kg ketamine HCl and 5 mg/kg xylaxine). Injections were intrarectal through 2 mm diameter, 6-8 cm long polyethylene catheter to deliver 1 mL solution. See Cagin et al., Exp. Ther. Med. 12 (5): 2958-2964 (2016).
(§5) TNFα and IL-6 cytokines were measured with ELISA kits according to the manufacturer's instructions (Invitrogen). The ELISA plates were developed with tetramethylbenzidine (TMB) substrate and absorbance was read at 450 nm using an ELx808 Ultra Microplate Reader (BioTek Instruments GmbH, Lucerne, Switzerland). […] Reduction in TNFα is consistent with loss of sTNFR2 binding.
(§6) All values reported are mean and standard error of the mean. Group comparisons are either two-tailed t-test or ANOVA calculated using Excel.

rat colon tissue = experiment: Colon histology, rat colitis model; type: in vivo; conditions: for colon micrographs (H&E, Masson's trichrome): tissue loss and inflammation: administered 10 days prior to initiating colitis, result in words, listed as sTNR2 peptide
Experimental: as §4
Colon samples were fixed in 10% neutral buffered formalin for 24 hours at room temperature and embedded in paraffin. Tissue sections, 5 μm thick, were stained with hematoxylin and eosin (H&E), Masson's trichrome, and Periodic Acid-Schiff (PAS) according to the manufacturer's protocols. Histological evaluation of colons were assigned scores, (a score of 1 is normal and a score of 4 is severe pathology) for the number of animals with pathology >2, average pathology score, pathology distribution, and average inflammatory score (Table 7).

TNFα = TNFα ELISA in rat colitis model; type: in vivo; conditions: for tissue resident TNFα: colon tissue; for reduction in TNFα: vaccinated animals
Experimental: as §4, §5, §6

[3] = tested on: Rat Colitis Model of Ulcerative Colitis; experiment: Rat colitis model of ulcerative colitis: visual and gross observations; type: in vivo
Experimental: as §4
The study design included 4 treatment groups:
Group B: alum only 10 day prior, followed by colitis
Group C: sTNFR2 peptide (SEQ ID NO: 18)+alum 10 day prior, followed by colitis
Group D: no vaccine and no colitis

[4] = circulating blood, vaccinated vs control animals, result in words
[5] = result in words, listed as AtheroVax
[6] = score of 1 is normal, 4 is severe pathology, colitis only group 4

DFALPVE/KPLCLQR (DFALPVEKPLCLQR; not fully specified; listed as Homo sapiens) [AtheroVax peptide (SEQ ID NO: 18)]
Thrombus (wet weight) (thrombus; Grp. 2, 25 μg peptide + adjuvant days 0 and 14): 0.011±0.001 grams | Thrombus (wet weight) (thrombus; Grp. 3, 75 μg peptide + adjuvant days 0 and 14): 0.007±0.001 grams | thrombus weight (thrombus; across doses, treatment prior to initiation of thrombosis, result in words): dose dependent smaller | intensity of FoxP3 (Treg) staining in colon [1]: less intense; also recorded: do not stain as intensely | number of FoxP3 positive cells in colon [1]: fewer cells; also recorded: reduced; also recorded: lower frequencies | fibrinogen [2]: elevation | prothrombin times [2]: increased | thrombin time [2]: decreased | IL-6 (mean ± SEM) (IL-6; ELISA, rat colitis model, injection 10 days before colitis, colitis only group 6.46 ± 0.22): 1.76 ± 0.13 | circulating levels of IL-6 (IL-6; [4]): significantly lower | tissue resident IL-6 (IL-6; result in words): significantly lower | tissue resident IL-6 (IL-6; [5]): significant reductions | reduction in IL-6 (IL-6; vaccinated animals, result in words): significant reductions | colon micrographs (H&E, Masson's trichrome): tissue loss and inflammation (rat colon tissue): significant protection against inflammation | colon micrographs (H&E, Masson's trichrome): tissue loss and inflammation (rat colon tissue; (SEQ ID NO: 18) and alum adjuvant): significant protective effect | Number animals with pathology >2 (1-5) (rat colon tissue; rat colitis model, colon histology): 5 | Average Inflammatory Score (1-4) (rat colon tissue; [6]): 2 | Average Pathology Score (1-4) (rat colon tissue; [6]): 1 | Pathology Distribution (1-4) (rat colon tissue; [6]): 2 | TNFα (mean ± SEM) (TNFα; ELISA, rat colitis model, injection 10 days before colitis, colitis only group 29.20 ± 0.65): 1.12 ± 0.13 | circulating levels of TNFα (TNFα; [4]): significantly lower | tissue resident TNFα (TNFα; result in words): significantly lower | tissue resident TNFα (TNFα; [5]): significant reductions | reduction in TNFα (TNFα; result in words): significant reductions | reduction in TNFα (TNFα; result in words, listed as sTNFR2 peptide (SEQ ID NO: 18)+alum): significant reduction | elevations in body temperature ([3]; rats, 25 μg peptide with 25 μg Alum 10 days before colitis): significantly prevented | loss of body weight ([3]; rats, 25 μg peptide with 25 μg Alum 10 days before colitis, visual observations): significantly prevented | gross colon observations (hyperemic, edematous, thickened, sharply increased volume) ([3]; rats, peptide + alum 10 days before colitis, compared with Group A (unvaccinated)): not associated | Bleeding ([3]; rats, subcutaneous injection 10 days before 4% acetic acid colitis, peptide 25 μg with 25 μg Alum): Hemoccult Negative | Stool ([3]; rats, subcutaneous injection 10 days before 4% acetic acid colitis, peptide 25 μg with 25 μg Alum, listed as sTNFR2 peptide (SEQ ID NO: 18)+alum): Normal | Stool ([3]; rats, subcutaneous injection 10 days before 4% acetic acid colitis, peptide 25 μg with 25 μg Alum, listed as sTNR2 peptide (SEQ ID NO: 18)+alum adjuvant): normal stools | integrity of the colon and outcomes in the rat colitis model ([3]; vaccinated vs control animals, result in words): preserved integrity oof the colon and improved outcomes
